From the supplement of paper PMC10307832

Columns and labels:
Experiment in all cases: relative viability (nuclei count vs DMSO), 5 days (fraction); higher = more cells survive
IMD-0354 + Trametinib = compound: O=C(Nc1cc(C(F)(F)F)cc(C(F)(F)F)c1)c1cc(Cl)ccc1O [IMD-0354] + CC(=O)Nc1cccc(-n2c(=O)n(C3CC3)c(=O)c3c(Nc4ccc(I)cc4F)n(C)c(=O)c(C)c32)c1 [Trametinib] (partner 0.02 µM)
Method in brief: (§1)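 Lung cancer cell lines, seeded in 1536-well plates, were treated the following day by pin tool with a single drug or with five library-drug doses (not always all listed) in √10 steps on top of a fixed anchor-drug dose. Cells were fixed and nuclei stained in one step after 5 days, and nuclei were counted. Relative viability is the nuclei count for treated wells divided by that for vehicle wells, reported as medians of duplicate plates.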

IMD-0354 + Linsitinib = compound: O=C(Nc1cc(C(F)(F)F)cc(C(F)(F)F)c1)c1cc(Cl)ccc1O [IMD-0354] + C[C@]1(O)C[C@@H](c2nc(-c3ccc4ccc(-c5ccccc5)nc4c3)c3c(N)nccn32)C1 [Linsitinib] (partner 1 µM)
Method in brief: as §1

IMD-0354 + Decitabine = compound: O=C(Nc1cc(C(F)(F)F)cc(C(F)(F)F)c1)c1cc(Cl)ccc1O [IMD-0354] + Nc1ncn([C@H]2C[C@H](O)[C@@H](CO)O2)c(=O)n1 [Decitabine] (partner 2 µM)
Method in brief: as §1

CX-5461 + Luminespib = compound: Cc1cnc(CNC(=O)c2c(=O)c3ccc(N4CCCN(C)CC4)nc3n3c2sc2ccccc23)cn1 [CX-5461] + CCNC(=O)c1noc(-c2cc(C(C)C)c(O)cc2O)c1-c1ccc(CN2CCOCC2)cc1 [Luminespib] (partner 0.01 µM)
Method in brief: as §1

Cell Line | relative viability (IMD-0354 + Trametinib; first compound 0.04 µM) | relative viability (IMD-0354 + Trametinib; first compound 0.1265 µM) | relative viability (IMD-0354 + Trametinib; first compound 0.4 µM) | relative viability (IMD-0354 + Trametinib; first compound 1.265 µM) | relative viability (IMD-0354 + Trametinib; first compound 4 µM) | relative viability (IMD-0354 + Linsitinib; first compound 0.04 µM) | relative viability (IMD-0354 + Linsitinib; first compound 0.1265 µM) | relative viability (IMD-0354 + Linsitinib; first compound 0.4 µM) | relative viability (IMD-0354 + Linsitinib; first compound 1.265 µM) | relative viability (IMD-0354 + Linsitinib; first compound 4 µM) | relative viability (IMD-0354 + Decitabine; first compound 0.04 µM) | relative viability (IMD-0354 + Decitabine; first compound 0.1265 µM) | relative viability (IMD-0354 + Decitabine; first compound 0.4 µM) | relative viability (IMD-0354 + Decitabine; first compound 1.265 µM) | relative viability (IMD-0354 + Decitabine; first compound 4 µM) | relative viability (CX-5461 + Luminespib; first compound 0.01 µM) | relative viability (CX-5461 + Luminespib; first compound 0.03162 µM) | relative viability (CX-5461 + Luminespib; first compound 0.1 µM) | relative viability (CX-5461 + Luminespib; first compound 0.3162 µM) | relative viability (CX-5461 + Luminespib; first compound 1 µM)
NCI-H1993 | 0.53 | 0.353 | 0.557 | 0.507 | 0.401 | 0.671 | 0.747 | 0.696 | 0.491 | 0.567 | 0.682 | 0.658 | 0.516 | 0.458 | 0.367 | 0.869 | 0.935 | 0.861 | 0.724 | 0.907
NCI-H2009 | 0.312 | 0.298 | 0.249 | 0.129 | 0.154 | 1.16 | 1.12 | 1.02 | 0.465 | 0.139 | 0.374 | 0.408 | 0.288 | 0.18 | 0.134 | 1.08 | 1.02 | 0.887 | 0.985 | 0.508
NCI-H2023 | 0.473 | 0.504 | 0.366 | 0.0709 | 0.115 | 0.81 | 0.569 | 0.558 | 0.197 | 0.121 | 0.262 | 0.222 | 0.167 | 0.0889 | 0.0963 | 0.675 | 0.318 | – | 0.314 | 0.0698
NCI-H2085 | 0.559 | 0.477 | 0.471 | 0.25 | 0.27 | 0.786 | 0.976 | 0.687 | 0.497 | 0.278 | 0.59 | 0.516 | 0.551 | 0.421 | 0.337 | 0.488 | 0.404 | 0.32 | 0.567 | 0.405
NCI-H2087 | 0.18 | 0.183 | 0.125 | 0.097 | 0.116 | 0.887 | 0.659 | 0.308 | 0.127 | 0.203 | 0.258 | 0.276 | 0.188 | 0.111 | 0.0967 | 0.184 | 0.166 | 0.15 | 0.158 | 0.178
NCI-H2126 | 0.591 | 0.558 | 0.491 | 0.644 | 0.31 | 0.644 | 0.685 | 0.715 | 0.577 | 0.316 | 0.526 | 0.59 | 0.641 | 0.594 | 0.306 | 0.883 | 0.848 | 0.908 | 0.847 | 0.411
NCI-H2347 | 0.279 | 0.296 | 0.227 | 0.27 | 0.207 | 1.04 | 1.08 | 0.824 | 0.511 | 0.447 | 0.546 | 0.653 | 0.483 | 0.491 | 0.323 | 0.563 | 0.413 | 0.753 | 0.327 | 0.341
NCI-H2405 | 0.753 | 0.625 | 0.518 | 0.283 | 0.277 | 1.18 | 1.06 | 0.695 | 0.335 | 0.185 | 0.883 | 0.801 | 0.636 | 0.294 | 0.347 | 0.664 | 0.665 | 0.862 | 0.743 | 0.515
